Source: patent US20150141381A1, “TETRACYCLINE COMPOUNDS HAVING TARGET THERAPEUTIC ACTIVITIES” (Paratek Pharmaceuticals, Inc., priority 2001, published 2015)

Key:
S. aureus RN450 = experiment: In Vitro Anti-Bacterial Activity Assay (MIC), gram positive; type: cell-based; settings: Staphylococcus aureus, RN450, 18 h, gram positive bacteria; read-out: Antibiotic Activity Gram + (MIC)
E. coli mL308 225 = experiment: In Vitro Anti-Bacterial Activity Assay (MIC), gram negative; type: cell-based; settings: Escherichia coli, ML308225, 18 h, gram negative bacteria; read-out: Antibiotic Activity Gram − (MIC)

Row | SMILES | MIC (S. aureus RN450) [µg/mL] | MIC (E. coli mL308 225) [µg/mL]
1 | CN(C)[C@@H]1C(O)=C(C(N)=O)C(=O)[C@@]2(O)C(O)=C3C(=O)c4c(O)cc(Cl)c(N)c4C[C@H]3C[C@@H]12 | > 4 | > 4
2 | NC(=O)C1=C(O)C[C@@H]2C[C@@H]3Cc4ccc(CN5CCCCC5)c(O)c4C(=O)C3=C(O)[C@]2(O)C1=O | > 4 | > 4
3 | COC1C(C(N)=O)=C(O)[C@@H](N(C)C)[C@@H]2[C@@H](O)[C@H]3C(=C(O)[C@]12O)C(=O)c1c(O)cccc1[C@@H]3C (stereo partly shown) | > 4 | > 4
4 | CCCCOC1C(C(N)=O)=C(O)[C@@H](N(C)C)[C@@H]2[C@@H](O)[C@H]3C(=C(O)[C@]12O)C(=O)c1c(O)cccc1[C@@H]3C (stereo partly shown) | > 4 | > 4
5 | CN(C)c1cc2c(c3c1C[C@H]1C[C@H]4[C@H](N(C)C)C(O)=C(C(N)=O)C(=O)[C@@]4(O)C(O)=C1C3=O)OC(=O)N(CC(C)(C)C)C2 | > 4 | > 4
6 | CN(C)[C@@H]1C(O)=C(C(N)=O)C(=O)[C@@]2(O)C(O)=C3C(=O)c4c(O)ccc(Cl)c4[C@](C)(O)[C@H]3C[C@@H]12 | < 4 | > 4
7 | C[C@H]1c2c(N)cc(I)c(O)c2C(=O)C2=C(O)[C@]3(O)C(=O)C(C(N)=O)=C(O)[C@@H](N(C)C)[C@@H]3[C@@H](O)[C@@H]21 | > 4 | > 4
8 | CN(C)[C@@H]1C(O)=C(C(N)=O)C(=O)[C@@]2(O)C(O)=C3C(=O)c4c(ccc(CNCCC(F)(F)F)c4O)C[C@H]3C[C@@H]12 | < 4 | < 4
9 | CN(C)c1cc(CN2CCC3(CC2)OCCO3)c(O)c2c1C[C@H]1C[C@H]3[C@H](N(C)C)C(O)=C(C(N)=O)C(=O)[C@@]3(O)C(O)=C1C2=O | < 4 | < 4
10 | CN(C)c1cc(CN2CCC(C(F)(F)F)CC2)c(O)c2c1C[C@H]1C[C@H]3[C@H](N(C)C)C(O)=C(C(N)=O)C(=O)[C@@]3(O)C(O)=C1C2=O | < 4 | < 4
11 | CN(C)c1cc(CNCc2ccc(F)cc2)c(O)c2c1C[C@H]1C[C@H]3[C@H](N(C)C)C(O)=C(C(N)=O)C(=O)[C@@]3(O)C(O)=C1C2=O | < 4 | < 4
12 | C[C@H]1c2ccc(CN3CCC(F)(F)CC3)c(O)c2C(=O)C2=C(O)[C@]3(O)C(=O)C(C(N)=O)=C(O)[C@@H](N(C)C)[C@@H]3[C@@H](O)[C@@H]21 | < 4 | < 4
13 | C[C@H]1c2ccc(CNCCC(F)(F)F)c(O)c2C(=O)C2=C(O)[C@]3(O)C(=O)C(C(N)=O)=C(O)[C@@H](N(C)C)[C@@H]3[C@@H](O)[C@@H]21 | < 4 | < 4
14 | CN(C)c1cc(CNNCC(F)(F)F)c(O)c2c1C[C@H]1C[C@H]3[C@H](N(C)C)C(O)=C(C(N)=O)C(=O)[C@@]3(O)C(O)=C1C2=O | < 4 | > 4
15 | CCN(Cc1ccccc1)Cc1cc(N(C)C)c2c(c1O)C(=O)C1=C(O)[C@]3(O)C(=O)C(C(N)=O)=C(O)[C@@H](N(C)C)[C@@H]3C[C@@H]1C2 | < 4 | < 4
16 | CN(C)c1cc(CN(Cc2ccccc2)CC(F)(F)F)c(O)c2c1C[C@H]1C[C@H]3[C@H](N(C)C)C(O)=C(C(N)=O)C(=O)[C@@]3(O)C(O)=C1C2=O | < 4 | > 4
17 | CNC(=O)C1CCN(Cc2cc(N(C)C)c3c(c2O)C(=O)C2=C(O)[C@]4(O)C(=O)C(C(N)=O)=C(O)[C@@H](N(C)C)[C@@H]4C[C@@H]2C3)CC1 | < 4 | < 4
18 | CC1CN(Cc2cc(N(C)C)c3c(c2O)C(=O)C2=C(O)[C@]4(O)C(=O)C(C(N)=O)=C(O)[C@@H](N(C)C)[C@@H]4C[C@@H]2C3)CC(C)O1 (stereo partly shown) | < 4 | < 4
19 | CN(C)c1cc(CN2CCCC2C(F)(F)F)c(O)c2c1C[C@H]1C[C@H]3[C@H](N(C)C)C(O)=C(C(N)=O)C(=O)[C@@]3(O)C(O)=C1C2=O (stereo partly shown) | < 4 | < 4
20 | COCC(C)CN(C)Cc1cc(N(C)C)c2c(c1O)C(=O)C1=C(O)[C@]3(O)C(=O)C(C(N)=O)=C(O)[C@@H](N(C)C)[C@@H]3C[C@@H]1C2 (stereo partly shown) | < 4 | > 4
21 | CC1OC(=O)NC1COC(=O)N(Cc1cc(N(C)C)c2c(c1O)C(=O)C1=C(O)[C@]3(O)C(=O)C(C(N)=O)=C(O)[C@@H](N(C)C)[C@@H]3C[C@@H]1C2)CC(C)(C)C (stereo partly shown) | < 4 | > 4
22 | CN(C)c1cc(CN2CCC(F)CC2)c(O)c2c1C[C@H]1C[C@H]3[C@H](N(C)C)C(O)=C(C(N)=O)C(=O)[C@@]3(O)C(O)=C1C2=O | < 4 | < 4
23 | CN(C)c1cc(CN2CCC3CCCCC3C2)c(O)c2c1C[C@H]1C[C@H]3[C@H](N(C)C)C(O)=C(C(N)=O)C(=O)[C@@]3(O)C(O)=C1C2=O (stereo partly shown) | < 4 | < 4
24 | CN(C)c1cc(CNCC(=O)C(C)(C)C)c(O)c2c1C[C@H]1C[C@H]3[C@H](N(C)C)C(O)=C(C(N)=O)C(=O)[C@@]3(O)C(O)=C1C2=O | < 4 | > 4

Row | SMILES | MIC (S. aureus RN450) [µg/mL] | MIC (E. coli mL308 225) [µg/mL]
25 | CN(C)c1cc(CN2CCc3ccccc3C2)c(O)c2c1C[C@H]1C[C@H]3[C@H](N(C)C)C(O)=C(C(N)=O)C(=O)[C@@]3(O)C(O)=C1C2=O | < 4 | < 4
26 | CN(C)c1cc(CNC2C[C@H]3CC[C@@H]2C3)c(O)c2c1C[C@H]1C[C@H]3[C@H](N(C)C)C(O)=C(C(N)=O)C(=O)[C@@]3(O)C(O)=C1C2=O (stereo partly shown) | < 4 | < 4
27 | CCc1cc(CNCCC(F)(F)F)c(O)c2c1C[C@H]1C[C@H]3[C@H](N(C)C)C(O)=C(C(N)=O)C(=O)[C@@]3(O)C(O)=C1C2=O | < 4 | < 4
28 | CN(C)c1cc(CN2CCC(=O)CC2)c(O)c2c1C[C@H]1C[C@H]3[C@H](N(C)C)C(O)=C(C(N)=O)C(=O)[C@@]3(O)C(O)=C1C2=O | < 4 | > 4
29 | CN(C)c1cc(CNCC23CC4CC(CC(C4)C2)C3)c(O)c2c1C[C@H]1C[C@H]3[C@H](N(C)C)C(O)=C(C(N)=O)C(=O)[C@@]3(O)C(O)=C1C2=O | < 4 | < 4
30 | CN(C)c1cc(CN2CCCCCC2)c(O)c2c1C[C@H]1C[C@H]3[C@H](N(C)C)C(O)=C(C(N)=O)C(=O)[C@@]3(O)C(O)=C1C2=O | < 4 | < 4
31 | CN(C)c1cc(CN2C3CCC2CC3)c(O)c2c1C[C@H]1C[C@H]3[C@H](N(C)C)C(O)=C(C(N)=O)C(=O)[C@@]3(O)C(O)=C1C2=O | < 4 | > 4
32 | CC(C)N1CCC(Nc2ccc3c(c2O)C(=O)C2=C(O)[C@]4(O)C(=O)C(C(N)=O)=C(O)[C@@H](N(C)C)[C@@H]4C[C@@H]2C3)CC1 | < 4 | > 4
33 | CN(C)c1cc(CN2CCC3(CCCC3)CC2)c(O)c2c1C[C@H]1C[C@H]3[C@H](N(C)C)C(O)=C(C(N)=O)C(=O)[C@@]3(O)C(O)=C1C2=O | < 4 | < 4
34 | CCC1(C)CCN(Cc2cc(N(C)C)c3c(c2O)C(=O)C2=C(O)[C@]4(O)C(=O)C(C(N)=O)=C(O)[C@@H](N(C)C)[C@@H]4C[C@@H]2C3)CC1 | < 4 | < 4
35 | CCN(CC)c1ccc(O)c2c1C[C@H]1C[C@H]3[C@H](N(C)C)C(O)=C(C(N)=O)C(=O)[C@@]3(O)C(O)=C1C2=O | < 4 | < 4
36 | Cc1cc(CNCc2cc(N(C)C)c3c(c2O)C(=O)C2=C(O)[C@]4(O)C(=O)C(C(N)=O)=C(O)[C@@H](N(C)C)[C@@H]4C[C@@H]2C3)c(C(F)(F)F)o1 | < 4 | < 4
37 | CN(C)c1cc(CNCCCC(F)(F)F)c(O)c2c1C[C@H]1C[C@H]3[C@H](N(C)C)C(O)=C(C(N)=O)C(=O)[C@@]3(O)C(O)=C1C2=O | < 4 | < 4
38 | CC(=O)O[C@H]1[C@H]2C(=C(O)[C@]3(O)C(=O)C(C(N)=O)=C(O)[C@@H](N(C)C)[C@H]13)C(=O)c1c(ccc(CN3CCC(C(F)(F)F)CC3)c1O)[C@@H]2C | < 4 | < 4
39 | CN(C)[C@@H]1C(O)=C(C(N)=O)C(=O)[C@@]2(O)C(O)=C3C(=O)c4c(ccc(NCCNC(C)(C)C)c4O)C[C@H]3C[C@@H]12 | < 4 | < 4
40 | C[C@H]1c2ccc(CN3CCC4(CC3)OCCO4)c(O)c2C(=O)C2=C(O)[C@]3(O)C(=O)C(C(N)=O)=C(O)[C@@H](N(C)C)[C@@H]3[C@@H](O)[C@@H]21 | < 4 | < 4
41 | CN(C)c1cc(CN2CCC(C(F)F)CC2)c(O)c2c1C[C@H]1C[C@H]3[C@H](N(C)C)C(O)=C(C(N)=O)C(=O)[C@@]3(O)C(O)=C1C2=O | < 4 | < 4
42 | CCN(CC)c1cc(CN2CCC(F)CC2)c(O)c2c1C[C@H]1C[C@H]3[C@H](N(C)C)C(O)=C(C(N)=O)C(=O)[C@@]3(O)C(O)=C1C2=O | < 4 | < 4
43 | CC1CCN(Cc2cc(N(C)C)c3c(c2O)C(=O)C2=C(O)[C@]4(O)C(=O)C(C(N)=O)=C(O)[C@@H](N(C)C)[C@@H]4C[C@@H]2C3)CC1 | < 4 | < 4
44 | COC1CCN(Cc2cc(N(C)C)c3c(c2O)C(=O)C2=C(O)[C@]4(O)C(=O)C(C(N)=O)=C(O)[C@@H](N(C)C)[C@@H]4C[C@@H]2C3)CC1 | < 4 | < 4
45 | CN(CCCC(F)(F)F)Cc1cc(N(C)C)c2c(c1O)C(=O)C1=C(O)[C@]3(O)C(=O)C(C(N)=O)=C(O)[C@@H](N(C)C)[C@@H]3C[C@@H]1C2 | < 4 | < 4
46 | CN(C)[C@@H]1C(O)=C(C(N)=O)C(=O)[C@@]2(O)C(O)=C3C(=O)c4c(O)ccc(CNCC(C)(C)C)c4C[C@H]3C[C@@H]12 | < 4 | < 4
47 | C[C@H]1c2c(CN)cc(C(C)(C)C)c(O)c2C(=O)C2=C(O)[C@]3(O)C(=O)C(C(N)=O)=C(O)[C@@H](N(C)C)[C@@H]3[C@@H](O)[C@@H]21 | > 4 | > 4
